Data taken from PubChem BioAssay AID1963834 (Molecular Pharmacology Branch, DTP, NCI, 2024).
Values joined by “and” are separate entries in the source; they are usually repeats but may differ in a detail not shown here. Equal entries are not always repeated.

Tested on: 873145-292-R-J1-PDC complex spheroid viability
Test: Anticancer human tumor 873145-292-R-J1-PDC patient-derived renal clear cell carcinoma cell line growth inhibition [POLQ]
Details: for viability, T/C: stronger effect = lower value
Protocol: Multicellular complex tumor spheroid response to Polymerase (POL) inhibitors (novobiocin, ART-558, RP6685) in combination with a variety of drugs and investigational agents in selected tumor cell lines
The POL inhibitors (novobiocin, ART-558, and RP6685) were evaluated both individually and in combination with standard of care and investigational anticancer small molecules within a complex spheroid model of solid tumors. . Complex spheroids include a stromal component modeled by human endothelial cells (HUVEC) and fibroblasts modeled by human mesenchymal stem cells (MSCs). The concentration ranges selected for each drug and investigational agent were based upon clinically achievable concentrations if the clinical Cmax of the agent was known.
Compounds. The drugs and investigational agents: novobiocin (NSC847541), ART-558 (NSC835418), RP-6685 (NSC848927), peposertib (NSC802822), ceralasertib (NSC780249), elimusertib (NSC800525), camonsertib (NSC841442), AZD-1390 (NSC803789), olaparib (NSC753686), talazoparib (NSC767125), rucaparib (NSC756644), sotorasib (NSC818433), MRTX-1133 (NSC836407), SN-38 (NSC673596), topotecan (NSC609699), epotoside (NSC141540), doxorubicin (NSC123127), gemcitabine (NSC613327), 5-fluorouracil (NSC19893), paclitaxel (NSC125973), vemurafenib (NSC761431), MSA-2 (NSC828583), SN-011 (NSC837082), adavosertib (NSC754352), prexasertib (NSC758257), carboplatin (NSC241240) and oxaliplatin (NSC266046), were obtained from the National Cancer Institute (NCI) Developmental Therapeutics Program Chemical Repository (21). The FDA-approved anticancer drug set is available from the Developmental Therapeutics Program at https://dtp.cancer.gov/organization/dscb/obtaining/. […] The stock solutions were prepared in dimethyl sulfoxide (DMSO, Sigma-Aldrich, St. Louis, MO, cat. D2650), except for the platinum compounds which were prepared in saline (Quality Biological, Gaithersburg, MD, cat. 114-055-101), at 800-fold the tested concentration and stored at -70 degrees C prior to their use. All drugs and investigational agents were tested over a range starting from a high concentration at or near the clinical Cmax and decreasing in half-log increments. If the clinical Cmax for an agent had not been determined, the highest concentration tested was 10 microM, except for SN-38, which was tested at a high concentration of 1 microM.
Cell Culture. All cells were maintained in an incubator at 37 degrees C and 5% CO2 with 95% humidity. The PDC lines were cultured according to standard operating procedures established by the NCI PDMR (https://pdmr.cancer.gov). Table 3 of the manuscript, lists the cell lines along with the number of the three cell types plated to form the mct-spheroids and media for tumor cell growth. After thawing, all PDC lines, except 997537-175-T-J1-PDC and 415267-285-R-J2-PDC, were cultured in Matrigel-coated flasks prepared with a working solution of 1X Ham's F-12 nutrient mix, without supplementation (Thermo Fisher Scientific, cat. 11765054), 100 U/mL penicillin-streptomycin (Thermo Fisher Scientific, cat. 15140122), and 2.5% Matrigel (Corning Inc., Corning, NY, cat. 354248) for the first three passages. The two PDC lines 997537-175-T-J1-PDC and 415267-285-R-J2-PDC were cultured on uncoated flasks. The 857933-349-R-J2-PDC line was cultured in 6C/Colon 1B media containing advanced DMEM/F-12 (Thermo Fisher Scientific, cat. 12634028), 10 mM HEPES (Thermo Fisher Scientific, cat. 15630080), 1X GlutaMAX supplement (Thermo Fisher Scientific, cat. 35050061), 0.1 mg/mL primocin (InvivoGen, San Diego, CA, cat. ant-pm-2), 10% defined fetal bovine serum, heat inactivated (HyClone Laboratories Inc., Logan, UT, cat. SH30070.03HI), 50% L-WRN conditioned media (ATCC, cat. CRL-3276), 1.25 mM N-Acetyl-L-cysteine (Sigma-Aldrich, cat. A9165), 10 mM nicotinamide (Sigma-Aldrich, cat. N0636), 1X B-27 supplement (Thermo Fisher Scientific, cat. 17504044), 1X N-2 supplement (Thermo Fisher Scientific, cat. […]
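Note: spheroids exposed to compounds for 7 days before viability readout.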
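Throughout, for viability, T/C: luminescence signal used as surrogate for viable cell content; 100% = DMSO vehicle control viability.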

SMILES: CC[C@@]1(O)C(=O)OCc2c1cc1n(c2=O)Cc2cc3c(CN(C)C)c(O)ccc3nc2-1
- viability, T/C (compound 0.000316 µM): 96.5% and 108% and 99.8%
- viability, T/C (compound 0.001 µM): 94.6% and 99.2% and 92.7%
- viability, T/C (compound 0.00316 µM): 93.4% and 95.2% and 101%
- viability, T/C (compound 0.01 µM): 92.8% and 107% and 103%
- viability, T/C (compound 0.0316 µM): 84.9% and 95.7% and 77.4%
- viability, T/C (compound 0.1 µM): 59.5% and 63.6% and 48.9%
- IC50 (curve of compound): > 0.1 µM and 0.0955 µM

SMILES: CCc1cc2c(N3CCc4c(cc(Cn5ccnc5)cc4-c4cn(C)nc4C(F)(F)F)C3=O)ccnc2c(OC)n1
- viability, T/C (compound 0.0316 µM): 107% and 99% and 101%
- viability, T/C (compound 0.1 µM): 89.9% and 92.2% and 96.8%
- viability, T/C (compound 0.316 µM): 89.1% and 97.3% and 84.2%
- viability, T/C (compound 1 µM): 92.1% and 87.7% and 87.1%
- viability, T/C (compound 3.16 µM): 86.4% and 98% and 86.1%
- viability, T/C (compound 10 µM): 75.7% and 91.9% and 81.5%
- IC50 (curve of compound): > 10 µM

SMILES: Cn1ncnc1[C@H]1c2n[nH]c(=O)c3cc(F)cc(c23)N[C@@H]1c1ccc(F)cc1
- viability, T/C (compound 0.000316 µM): 99.5% and 108% and 99.7%
- viability, T/C (compound 0.001 µM): 102% and 92.8% and 98%
- viability, T/C (compound 0.00316 µM): 91.2% and 96.3% and 103%
- viability, T/C (compound 0.01 µM): 107% and 97.5% and 102%
- viability, T/C (compound 0.0316 µM): 108% and 102% and 94.4%
- viability, T/C (compound 0.1 µM): 101% and 97.9% and 88.9%
- IC50 (curve of compound): > 0.1 µM

SMILES: CCc1cc2c(N3CCc4c(cc(Cn5ccnc5)cc4-c4cn(C)nc4C(F)(F)F)C3=O)ccnc2c(OC)n1 + Cc1cccc(N(C)C(=O)C2C(O)CCN2c2nc(C)cc(C(F)(F)F)c2C#N)c1
- IC50 (curve of first compound, second compound 0.0316 µM): > 10 µM
- IC50 (curve of first compound, second compound 0.1 µM): > 10 µM
- IC50 (curve of first compound, second compound 0.316 µM): > 10 µM
- IC50 (curve of first compound, second compound 1 µM): > 10 µM
- IC50 (curve of first compound, second compound 3.16 µM): > 10 µM
- IC50 (curve of first compound, second compound 10 µM): > 10 µM
- viability, T/C (second compound 0.0316 µM, first compound 0.0316 µM): 92.1%
- viability, T/C (second compound 0.0316 µM, first compound 0.1 µM): 114%
- viability, T/C (second compound 0.0316 µM, first compound 0.316 µM): 100%
- viability, T/C (second compound 0.0316 µM, first compound 1 µM): 94.6%
- viability, T/C (second compound 0.0316 µM, first compound 3.16 µM): 88%
- viability, T/C (second compound 0.0316 µM, first compound 10 µM): 83.2%
- viability, T/C (second compound 0.1 µM, first compound 0.0316 µM): 99.6%
- viability, T/C (second compound 0.1 µM, first compound 0.1 µM): 118%
- viability, T/C (second compound 0.1 µM, first compound 0.316 µM): 88.9%
- viability, T/C (second compound 0.1 µM, first compound 1 µM): 95%
- viability, T/C (second compound 0.1 µM, first compound 3.16 µM): 91.6%
- viability, T/C (second compound 0.1 µM, first compound 10 µM): 78.4%
- viability, T/C (second compound 0.316 µM, first compound 0.0316 µM): 105%
- viability, T/C (second compound 0.316 µM, first compound 0.1 µM): 101%
- viability, T/C (second compound 0.316 µM, first compound 0.316 µM): 82.2%
- viability, T/C (second compound 0.316 µM, first compound 1 µM): 94.6%
- viability, T/C (second compound 0.316 µM, first compound 3.16 µM): 94.6%
- viability, T/C (second compound 0.316 µM, first compound 10 µM): 83.7%
- viability, T/C (second compound 1 µM, first compound 0.0316 µM): 90.5%
- viability, T/C (second compound 1 µM, first compound 0.1 µM): 87.3%
- viability, T/C (second compound 1 µM, first compound 0.316 µM): 91.7%
- viability, T/C (second compound 1 µM, first compound 1 µM): 93.4%
- viability, T/C (second compound 1 µM, first compound 3.16 µM): 89.7%
- viability, T/C (second compound 1 µM, first compound 10 µM): 78%
- viability, T/C (second compound 3.16 µM, first compound 0.0316 µM): 88.2%
- viability, T/C (second compound 3.16 µM, first compound 0.1 µM): 104%
- viability, T/C (second compound 3.16 µM, first compound 0.316 µM): 85%
- viability, T/C (second compound 3.16 µM, first compound 1 µM): 91.3%
- viability, T/C (second compound 3.16 µM, first compound 3.16 µM): 80.1%
- viability, T/C (second compound 3.16 µM, first compound 10 µM): 90.1%
- viability, T/C (second compound 10 µM, first compound 0.0316 µM): 90.1%
- viability, T/C (second compound 10 µM, first compound 0.1 µM): 97.3%
- viability, T/C (second compound 10 µM, first compound 0.316 µM): 85.3%
- viability, T/C (second compound 10 µM, first compound 1 µM): 84.5%
- viability, T/C (second compound 10 µM, first compound 3.16 µM): 81.2%
- viability, T/C (second compound 10 µM, first compound 10 µM): 90.3%

SMILES: C=CC(=O)N1CCN(c2nc(=O)n(-c3c(C)ccnc3C(C)C)c3nc(-c4c(O)cccc4F)c(F)cc23)C(C)C1 (stereo not given)
- viability, T/C (compound 0.0316 µM): 98.3% and 103% and 94.9%
- viability, T/C (compound 0.1 µM): 99.5% and 99.4% and 98.3%
- viability, T/C (compound 0.316 µM): 107% and 125% and 109%
- viability, T/C (compound 1 µM): 118% and 113% (2×)
- viability, T/C (compound 3.16 µM): 137% and 134% and 116%
- viability, T/C (compound 10 µM): 121% and 145% and 124%
- IC50 (curve of compound): > 10 µM
